Columns and labels:
[1] = tested on: 293HGLVP/CrePr cells; assay: RU486-induced CrePr activation of IL-1βXAT in 293HGLVP/CrePr cells; assay type: cell-based
Method: The IL-1β^XAT gene was transiently transfected into 293HGLVP/CrePr cells and the expression of IL-1β and lacZ were evaluated following RU486 (10^-7 M) administration.
IL-1β expression was assessed at the mRNA level by reverse transcriptase PCR (RT-PCR), and lacZ expression was evaluated by X-gal histochemistry.

[2] = tested on: mice; assay type: in vivo; details: perinatal systemic administration
[3] = literature (Loddick and Rothwell 1996; Yamasaki et al. 1995); cited from earlier work
[4] = tested on: primary rat endothelial cells; assay: IL-1β regulation of inflammation-related genes in primary rat endothelial cells (mRNA, zymography); assay type: cell-based; details: murine IL-1β 10 ng/mL, over 72 hours
Method: The effects of IL-1β were evaluated in vitro utilizing primary rat endothelial cell cultures as a representative rodent cell type. In this experiment, murine IL-1β (10 ng/mL) was administered to cultured primary cells, and subsequently examined for the regulation of several inflammation-related genes at the transcript level over the course of 72 hours. These molecules include (A) the inducible isoform of cyclooxygenase (COX-2), intercellular adhesion molecule-1 (ICAM-1) and monocyte chemoattractant protein-1 (MCP-1), as well as (B) the collagenase-A (MMP-2) and -B (MMP-9). Panel (C) depicts enzyme activity levels of MMP-2 and MMP-9 as evaluated by zymography.
Moreover, a plethora of inflammation-related genes are in turn induced by IL-1β, leading to exacerbation of the inflammatory response. IL-1βregulates down-stream inflammatory genes, including the inducible isoform of cyclooxygenase (COX-2) and the intercellular adhesion molecule-1 (ICAM-1), the monocyte chemoattractant protein-1 (MCP-1), as well as collagenases A (MMP-2) and B (MMP-9). ICAM-1 and MCP-1 are molecules associated with the recruitment of circulating immune cells at the site of injury (i.e. neutrophils and monocytes, respectively), whereas MMP-2 and MMP-9 are collagenases associated with tissue destruction during arthritis and injury. Primary rat endothelial cells were employed as a representative rodent model to investigate the effects of IL-1β on the regulation of ICAM-1, MCP-1, MMP-2 and MMP-9 at the transcriptional level (mRNA) as well as the enzyme activity level (zymography). FIG. 5 summarizes the regulation of these genes over time.

## CC#C[C@]1(O)CC[C@H]2[C@@H]3CCC4=CC(=O)CCC4=C3[C@@H](c3ccc(N(C)C)cc3)C[C@@]21C [RU486, mifepristone]
[1]; RU486 10^-7 M
  secreted IL-1β protein in supernatant media (ELISA): significantly higher levels
[1]; RU486 10^-7 M, IL-1βXAT-transfected cells
  IL-1β and lacZ mRNA (RT-PCR): up-regulation
[1]; RU486 in culture media
  number of X-gal positive cells: significant increase

## FIV(lacZ): FIV vector carrying the reporter gene lacZ, construct 12750 bp
[2]
  duration of stable lacZ reporter expression: over 3 months

## IL-1ra: IL-1 receptor antagonist, competes for receptor binding
[3]
  tissue damage / injury in stroke models: significantly attenuates tissue injury

B1: IL-1β: pro-inflammatory cytokine; murine IL-1β (10 ng/mL) in FIG. 5 (protein, UniProt P10749 118-269, looked up)
Interleukin-1 beta: VPIRQLHYRLRDEQQKSLVLSDPYELKALHLNGQNINQQVIFSMSFVQGEPSNDKIPVALGLKGKNLYLSCVMKDGTPTLQLESVDPKQYPKKKMEKRFVFNKIEVKSKVEFESAEFPNWYISTSQAEHKPVFLGNNSGQDIIDFTMESVSS
[3]
  tissue damage / injury in stroke models: exacerbates damage
[4]
  MMP-2 enzyme activity (zymography): increased with time
  MMP-2 mRNA levels: not altered
  synthesis of COX-2, MCP-1, ICAM-1 and MMP-9: upregulated

From patent US8003779B2, “Compositions and methods for studying and treating inflammatory diseases and disorders” (University of Rochester, priority 2005, dated 2011)
